Assay results from US12053504B2, “Anti-angiogenic treatment using VLO4 with a blocking peptide” ([…] OF PHARMACY, LLC, priority 2011, dated 2024).
Entries after “also recorded” stand apart in the source; their conditions may differ.

Columns and labels:
colorectal cancer = conditions: in combination with the standard Saltz regime of irinotecan, 5-fluorouracil, and leucovorin; cited from earlier work
HT1080 tumor cell = HT1080 tumor cell invasion from contracted collagen into fibrin 3D matrices; format: cell-based; conditions: for HT1080 tumor cell invasion from contracted collagen into fibrin 3D matrices: 3 μg/ml, FIGS. 11 and 12
[1] = target: collagen receptors α2β1 integrins (Homo sapiens, UniProt P05556+P17301); conditions: cited from earlier work
HDMEC = experiment: Microcarrier (EC-bead) in vitro sprout angiogenesis assay of HDMEC in fibrin gel; format: cell-based, human; conditions: for sprout angiogenesis of HDMEC in fibrin induced by VEGF and bFGF: 3 days; for sprout angiogenesis in a HDMEC culture in VEGF and bFGF (Example 4): agent(s) added to HDMEC culture in VEGF and bFGF, doses not printed in this block; for sprout angiogenesis of HDMEC in fibrin, single agent (Example 4 summary): in vitro, doses not given
Description: Human dermal microvascular endothelial cells (HDMEC) were isolated from human neonatal foreskins. Briefly, after initial harvest from minced trypsinized human foreskins, microvascular endothelial cells were further purified on a PERCOLL density gradient. HDMEC were cultured on collagen type 1 coated tissue culture flasks in EGM (endothelial cell growth medium) consisting of EBM supplemented with 10 ng/ml epidermal growth factor, 0.4% bovine brain extract, 17.5 microg/ml dibutyryl cyclic AMP, and 1 microg/ml hydrocortisone in the presence of 30% normal human serum. Endothelial cell cultures were characterized and determined to be >99% pure on the basis of formation of typical cobblestone monolayers in culture, positive immunostaining for factor VIII-related antigen, and selective uptake of acetylated low density lipoprotein. All experiments were done with HDMEC below passage 10. Bovine aortic endothelial cells (BAEC) were obtained from BioWhittaker, Inc. (Walkersville, MD) and cultured according to manufacturer's instruction. BAEC between passage 4 and 8 were used for experiments.
Gelatin-coated CYTODEX-3 microcarrier beads were prepared as described by the manufacturer. Approximately 80,000 sterile microcarrier beads were washed, resuspended in EGM, and added to approximately 4.5 million endothelial cells (HDMEC or BAEC). The beads and cells were mixed by gentle swirling, incubated at 37° C. for 6 hr, and then rotated for 24-36 hr on an orbital mixer in a 37° C. oven to generate endothelial cell-loaded microcarrier beads (EC-beads).
FIGS. 1A-1C illustrate a study of human microvascular endothelial cell angiogenesis, according to some embodiments. A microcarrier, in vitro angiogenesis assay, previously designed to investigate bovine pulmonary artery endothelial cell angiogenic behavior in bovine fibrin gels, was modified for the study of human microvascular endothelial cell angiogenesis. The HDMEC were isolated from human neonatal foreskins and used, as described above, and images were captured at various magnifications, where the effect of angiogenic factors on sprout angiogenesis was quantified visually by counting the number and percent of EC-beads with capillary sprouts. […]
For experiments using RGD peptides, EC-beads were firstly incubated with vary concentrations of peptides for one hour and then were added to the ECM solutions. About 500 EC-beads were then added to the ECM protein solutions, followed by the addition of 0.5 U/ml human thrombin. A 0.3 ml aliquot of each suspension was immediately added to appropriate wells of a 24-well tissue culture plate. After gelation, 1 ml of fresh assay medium (EBM supplemented with 20% normal human serum for HDMEC or EBM supplemented with 10% fetal bovine serum for BAEC) was added to each well.
FIGS. 1B and 1C show how the angiogenic response was monitored visually and recorded by video image capture. Specifically, capillary sprout formation was observed and recorded with a NIKON Diaphot-TMD inverted microscope (Nikon Inc., Melville, NY), equipped with an incubator housing with a NIKON NP-2 thermostat and Sheldon #2004 carbon dioxide flow mixer. The microscope was directly interfaced to a video system consisting of a Dage-MTI CCD-72S video camera and Sony 12″ PVM-122 video monitor linked to a Macintosh G3 computer. The images were captured at various magnifications using Adobe Photoshop. The effect of angiogenic factors on sprout angiogenesis was quantified visually by determining the number and percent of EC-beads with capillary sprouts. 100-200 beads (five random low power fields) in each of triplicate wells were counted for each experimental condition. All experiments were repeated at least three times.

[2] = tested on: A549 (human alveolar adenocarcinoma cell line); experiment: A549 tumor cell proliferation; format: cell-based; conditions: FIG. 13
[3] = tested on: H1650 (Human metastatic lung cancer cell line); experiment: H1650 tumor cell proliferation; format: cell-based; conditions: FIG. 13

## AVASTATIN: human monoclonal antibody to VEGF
Colorectal cancer
  increase in survival time: more than 30%

## VP12
HT1080 tumor cell
  HT1080 tumor cell invasion from contracted collagen into fibrin 3D matrices: significantly inhibit
[1]
  inhibitory activity against collagen receptors α2β1 integrins: potent inhibitory activity
HDMEC; VP12 10 μg/ml alone, VEGF 30 ng/ml, bFGF 25 ng/ml
  sprout angiogenesis of HDMEC in fibrin induced by VEGF and bFGF: didn't significantly inhibit
HDMEC; VP12 (ECL12) administered in combination with echistatin
  enhancement of the inhibition of sprout angiogenesis by echistatin: significantly and synergistically enhanced
HDMEC
  sprout angiogenesis in a HDMEC culture in VEGF and bFGF (Example 4): inhibition
  sprout angiogenesis of HDMEC in fibrin, single agent (Example 4 summary): no inhibitory effect

## Echistatin (QCESGPCCRNCKFLKEGTICKRARGDDMDDYCNGKTCDCPRNPHKGPAT)
HT1080 tumor cell
  HT1080 tumor cell invasion from contracted collagen into fibrin 3D matrices: significantly inhibit
HDMEC
  sprout angiogenesis in a HDMEC culture in VEGF and bFGF (Example 4): inhibition
  sprout angiogenesis of HDMEC in fibrin, single agent (Example 4 summary): dose dependently inhibits
HDMEC; echistatin 0.1 μg/ml alone, VEGF 30 ng/ml, bFGF 25 ng/ml, FIG. 10B
  sprout angiogenesis of HDMEC in fibrin induced by VEGF and bFGF: didn't significantly inhibit

## GPenGRGDSPCA [RGD[VN], reference compound]
HDMEC; RGD[VN] 12.5 mM-100 mM, pre-incubated 1 hr at RT, VEGF 100 ng/ml, compared to GRGESP[RGE] control peptide, FIG. 4
  sprout angiogenesis of HDMEC in fibrin: significantly inhibited

B1: VLO4 (protein)
chain: MNSGNPCCDPVTCKPRRGEHCVSGPCCRNCKFLNAGTICKRARGDDMNDYCTGISPDCPRNPWKG
HT1080 tumor cell
  HT1080 tumor cell invasion from contracted collagen into fibrin 3D matrices: significantly inhibit
HT1080 tumor cell; FIG. 11
  HT1080 tumor cell invasion from contracted 3D collagen matrices into 3D fibrin matrices, dose dependence: dose dependently inhibits
HDMEC; VLO4 0.01 μg/ml alone, VEGF 30 ng/ml, bFGF 25 ng/ml
  sprout angiogenesis of HDMEC in fibrin induced by VEGF and bFGF: didn't significantly inhibit
HDMEC; VLO4 0.3 μg/ml-3 μg/ml, 30 minutes at RT, VEGF 100 ng/ml, FIG. 5
  sprout angiogenesis of HDMEC induced by VEGF in fibrin: dose-dependently inhibits
HDMEC; VLO4 3 μg/ml added on day 5, read within 24 hours, VEGF 30 ng/ml, bFGF 25 ng/ml, CH2 10 μg/ml, FIG. 7B
  disruption of newly formed angiogenic sprouts of HDMEC in fibrin: totally disrupted; also recorded: disrupts
HDMEC; VLO4 0.01, 0.1, 0.3 and 1 μg/ml, 30 minutes at room temperature, VEGF 100 ng/ml, FIGS. 6A-6D
  sprout angiogenesis of HDMEC induced by VEGF in fibrin (micrographs): dose-dependently inhibits
[2]
  A549 tumor cell proliferation: significantly inhibited
[3]
  H1650 tumor cell proliferation: significantly inhibited
